Laboratory results taken from patent US11286251B2, “Matrix metalloproteinase inhibitors and imaging agents, and methods using same” (Yale University, priority 2016, dated 2022).
“Also recorded” adds a separate entry of the source.

What was measured:
[1] = Stability in saline / radiolabeling media by RP-HPLC; assay type: physicochemical; conditions: room temperature
[2] = Radiochemical stability in mouse blood by radio-HPLC; assay type: in vitro ADME; conditions: in vitro incubation at 37° C. up to 5 hours
Procedure: Tracers were incubated in blood (200 μL) with gentle agitation (Thermo mixer, 1000 rpm) at 37° C. for 4 h. At 0, 2, and 4 h time points, 40 μL of blood sample were collected and centrifuged at 4° C. (3000 rpm, 20 min). 10 μL of the supernatant (plasma) were collected and diluted in methanol (90 μL). The sample was then vortexed for 30 s at room temperature and centrifuged at 4° C. (3000 rpm, 15 min). 50 μL of the supernatant were concentrated, filtered and analysed by radioHPLC or LC-MS.
(§1) Radiolabeling quality control was performed by reverse phase radio-HPLC analysis (HPLC system 2489, Waters) with a flow rate of 1 mL/min using an analytical column (JUPITER® 4 μm Proteo 90 Å, Phenomenex) with gradients of solvent A (0.16% ammonium formate in aqueous solution) and solvent B (0.16% ammonium formate in 90% acetonitrile). The HPLC gradients were programmed as follows: 10% B for 2 min, 10-70% B in 5 min, 5 min 70% B and 70-90% B in 5 min. In vitro and in vivo stability of the tracer were analyzed by radio-HPLC following in vitro incubation in mouse blood at 37° C. for up to 5 hours, and from urine collected at 2 hours after tracer injection, respectively.

[3] = tested on: suprarenal abdominal aorta (AAA); experiment: microSPECT/CT imaging of AAA in angiotensin II-infused mice; assay type: in vivo, apoE−/− mice
Procedure: In addition, sixteen weeks-old male apoE^−/− (n=16) were infused with human angiotensin II (Ang II, 1000 ng/kg/min, Calbiochem), delivered by a subcutaneous osmotic minipump (Model 2004, Alzet) implanted under anesthesia (isoflurane 2%).
Animals were imaged using a dedicated high resolution small animal imaging system (X-SPECT, GammaMedica), using one mm low energy (for ^99mTc) pinhole collimators. The spatial resolution of this system for ^99mTc in tomographic images with a 1-mm pinhole collimator and 4 cm radius of rotation was 1.1 mm full-width half-maximum. Radiotracer (1 mCi for mice) was injected through an intravenous catheter. Anesthetized mice (with isoflurane) were placed in a fixed position under the camera. Three point sources of known activity (˜1 μCi) were placed in the field of view, but outside the body, to quantify tracer uptake and to verify the accuracy of image fusions. […]
After completion of microSPECT images CT imaging was performed (energy: 75 kV/280 μA, matrix: 512×512) to identify anatomical structure. […] Images were analyzed using Xeleris Functional Imaging Workstation (General Electric, Waukesha, Wis.). […] Activities of each organ was expressed as % ID using the point sources. […]
RNA was isolated from aortic tissue using GenElute Mammalian Total RNA Miniprep Kit (Sigma-Aldrich) and reverse-transcribed using QuantiTect Reverse Transcription Kit (Qiagen). […]

[4] = Blood kinetics and biodistribution in C57BL/6J mice; conditions: mouse, in vivo; for blood pool activity: iv
Procedure: Biodistribution at 2 h post-injection (p.i.) and blood clearance were evaluated in C57Bl/6J mice injected with 16±5 MBq of ^99mTc-1 (n=6) or ^99mTc-RP805 (n=6). In vivo targeting to aneurysm and specificity of ^99mTc-1 was evaluated in high-fat fed apolipoprotein E-deficient mice, 4 weeks after carotid aneurysm induction through peri-adventitial application of CaCl2. The animals were injected with 31±14 MBq of ^99mTc-1 with (n=3) or without (n=4) pre-injection of non-labeled 1.

[5] = In vivo radiochemical stability, radio-HPLC of urine; parameters: species or system C57BL/6J mouse; conditions: urine collected 2 hours after intravenous injection
Procedure: as §1

[6] = Partition coefficient between n-octanol and water or Tris buffer; assay type: physicochemical; conditions: for logD: coligands Tricine-TPPTS
Procedure: Matrix metalloproteinase-targeted imaging agents known in the art suffer from poor solubility of their precursors and have blood clearance times that make them ill-suited for practical application. The partition coefficient (Log D) values of ^99mTc-1 and ^99mTc-RP805 were determined based on their proportional distribution between n-octanol and water or Tris buffer at pH 7.4. […] Compared with ^99mTc-RP805 and its precursor, the increased hydrophilicity of ^99mTc-1 (and 1) can in one aspect be ascribed to the introduction of arginine residue.

[7] = all tissues evaluated, but not the bile; 2 h
Procedure: To investigate biodistribution in apoE^−/− mice, animals at seven weeks after peri-adventitial application of CaCl2 or NaCl to carotid arteries were injected with 31±14 MBq (14±2 pg/kg) of ^99mTc-1, with (n=5) or without (n=6) pre-injection of an excess of the parent inhibitor 19 (23±8 ng/kg). Animals were kept under anesthesia for 60 min and blood samples were collected at various times post-injection. Tissue samples and body fluids were collected and weighed at 2 hours post-injection, and measured for their radioactivity by gamma-well counting (WIZARD2®, PerkinElmer). Data were expressed as percentage of injected dose (ID) per gram of tissue or mL of blood.
^99mTc-1 binding to carotid aneurysm and specificity in vivo were evaluated in apoE^−/− mice at seven weeks after peri-adventitial application of CaCl2 to left carotid arteries.

Aqueous solubility = assay type: physicochemical
[8] = tested on: CaCl2-induced carotid aneurysm; experiment: Quantitative autoradiography of carotid aneurysm, blocking study; assay type: in vivo, apoE−/− mice; conditions: autoradiography at 2 h
Procedure: Arterial aneurysm was induced by exposing the left common carotid artery of apolipoprotein E-deficient (apoE^−/−) mice to calcium chloride. Briefly, 4- to 6-wk-old female apoE^−/− mice (n=96; Jackson Laboratory) were fed high-cholesterol chow ad libitum. After 1 wk, the carotid arteries were exposed by blunt-end dissection under anesthesia. The left common carotid artery just below the carotid bifurcation was adventitially exposed to a 10% solution of CaCl2 for 20 min. The opposite carotid artery was exposed to normal saline and served as a control for imaging studies (Razavian, et al., 2010, J Nucl Med. 51(7):1107-15).
For autoradiography, the specimens were mounted on a board and placed in contact with to a reusable phosphor screen (MultiSensitive Phosphor Screen, PerkinElmer) along with standards of known activity. The screen was scanned in a phosphor imager system (Typhoon Trio, GE Healthcare Life Sciences) at a pixel size of 25×25 μm and images were analyzed using the Fiji software. Tracer uptake was quantified using a standard curve and expressed a % injected dose (ID)/pixel.
The tissues were placed on a phosphor screen (MultiSensitive Phosphor Screen, PerkinElmer) along with standards of known activity. […]

CC(C)C[C@H]1C(=O)N[C@H](C(=O)N[C@@H](CCCNC(=N)N)C(=O)NCCNC(=O)c2ccc(N[N]=[Tc]345([PH](c6cccc(S(=O)(=O)O)c6)(c6cccc(S(=O)(=O)O)c6)c6cccc(S(=O)(=O)O)c6)[O]CC(CO)(C[O]3)[N]4CC(=O)[O]5)nc2)Cc2ccc(cc2)OCCC[C@@H]1C(=O)NO [^99mTc-1]
stability in saline [1]: good stability | radiochemical stability in mouse blood [2]: high radiochemical stability; also recorded: good stability; also recorded: single peak; also recorded: radiochemically stable | left ventricle blood pool activity ([3]; AAA group): 0.14±0.10 cpv/MBq | left ventricle blood pool activity ([3]; low remodeling group): 0.12±0.08 cpv/MBq | hepatobiliary excretion: bile activity ([4]; 2 h): 1.5±0.3 % ID/g | tissue uptake in control aorta ([4]; 2 h): 6.0±1.4 % ID/g | blood pool activity ([4]; 1 h): 1.3±0.4 % ID/mL | blood pool activity ([4]; 2 h): 1.0±0.4 % ID/mL | in vivo radiochemical stability (urine) [5]: high radiochemical stability | logD ([6]; n-octanol/Tris buffer, Octanol/Tris (pH = 7.4)): -4.4 ± 0.1 | logD ([6]; n-octanol/water, Octanol/water): -4 ± 0.1 | logP ([6]; n-octanol/water, read-out: Log P n-octanol/water): -4 ± 0.1 | tissue uptake by gamma well counting on pre-injection of parent pan-MMP inhibitor [7]: significantly reduced | water solubility (in words) (Aqueous solubility): high water solubility | decrease in aneurysm-to-aorta uptake ratio under blocking conditions [8]: 1.8 fold | decrease in carotid aneurysm tracer uptake on pre-injection of excess parent pan-MMP inhibitor ([8]; blocking vs no blocking): 4.6 fold
